{
  "source": "patent US12715851B2",
  "about": "“4′-substituted analogues of fisetin and their use in the treatment of cancer” (Stellenbosch University, priority 2020, dated 2026)",
  "key": {"[1]": {"assay": "Acute toxicity, fed orally for two weeks", "assay_type": "in vivo", "conditions": "Fisetin 50 mg/kg, 3c 25 and 50 mg/kg body weight", "protocol": "Fisetin analogue 3c was used to assess the potential toxicity of these analogues in a pre-clinical model. To test the acute toxicity, Fisetin (50 mg/kg body weight), analogue 3c (25 mg/kg and 50 mg/kg body weight), and vehicle control (5% DMSO, 45% PEG-300 and 50% saline) was fed orally for two weeks. Abnormal clinical signs such as decreased motor activity, sensory reflection, body weight, food intake, and water intake were monitored during the treatment period. An increase in body weight was observed among all groups throughout the treatment period (FIG. 7A). […] This variation could be due to consistent frequency of dosage."}, "H1299 cells": {"tested_on": "H1299 cells", "assay": "Western blot of signalling, cell cycle and apoptosis markers", "assay_type": "cell-based, human", "from_the_text": "Similarly, in H1299 cells analogue 3a induced a 11.7 to 14.9% cell death (FIG. 4D right) compared to 3.8% in control cells. Analogue 3c (FIG. 4E right) and analogue 3e (FIG. 4F right) induced cell death of 8.2 to 15.1% and 8.8 to 16.6% respectively. For western blot experiments, two concentrations were used, i.e. the IC50 concentration and the next higher concentration utilized for cell proliferation for each cell line.\nIn H1299 cells (FIG. 4H), the higher concentrations of all three Fisetin analogues decreased the expression of pErk1/2. […]\nThe decreased expression of these proteins explains the decreased cell proliferation in both A549 and H1299 cells. […] Consistent with A549 data, all three the Fisetin analogues decreased the expression of anti-apoptotic protein Bcl-2 at both the concentrations. In H1299 cells, all the analogues increased cleaved Caspase-3 compared to control untreated cells. Thus, modulation of apoptosis regulatory proteins has caused apoptosis in both A549 and H1299 cells by the tested Fisetin analogues."}, "A549": {"tested_on": "A549", "assay": "Cell cycle distribution, propidium iodide flow cytometry", "assay_type": "cell-based, human", "conditions": "48 h", "protocol": "(§1) To examine the effect of Fisetin analogues on cell cycle regulation, cells were treated with different concentrations of Fisetin analogues (5, 10 & 20 μM) for 48 h, then stained with propidium iodide and subjected to flow cytometry. All three of the tested Fisetin analogues induced G2/M phase cell cycle arrest in A549 (FIGS. 5A-5C) and H1299 human lung cancer cells (FIGS. 5D-5F)."}, "[2]": {"tested_on": "H1299 human lung cancer cells", "assay": "Cell cycle distribution, propidium iodide flow cytometry", "assay_type": "cell-based", "conditions": "H1299, 48 h", "protocol": "as §1"}},
  "note": "“Also recorded” adds a separate entry of the source.",
  "data": [
    {"smiles": "O=c1c(O)c(-c2ccc(Br)cc2)oc2cc(O)ccc12", "note": "[analogue 3c, 4′-Bromo-3,7-dihydroxyflavone]", "values": [
      {"measurement": "toxicity in mice, in words", "setting": "[1]", "value": "well tolerated in animal models; also recorded: does not show toxicity; also recorded: did not cause toxicity"},
      {"measurement": "Phospho-Cdc-2 expression", "setting": "H1299 cells; IC50 concentration and 10 μM", "value": "higher concentration of analogue 3c and both concentrations of analogue 3e decreased the expression of phospho-Cdc-2"},
      {"measurement": "Total Cdc-2", "setting": "H1299 cells; IC50 concentration and 10 μM", "value": "marginally affected by higher concentration"},
      {"measurement": "expression of Bax", "setting": "H1299 cells; IC50 concentration and 10 μM", "value": "increased the expression of pro-apoptotic protein Bax"},
      {"measurement": "expression of Cyclin B1", "setting": "H1299 cells; IC50 concentration and 10 μM", "value": "decreased in all treatments, except for the lower concentration of analogue 3c"},
      {"measurement": "expression of phospho Akt", "setting": "H1299 cells; IC50 concentration and 10 μM", "value": "completely undetected"},
      {"measurement": "expression of phospho-EGFR", "setting": "H1299 cells; IC50 concentration and 10 μM", "value": "decreased the expression of both phospho and total EGFR"},
      {"measurement": "expression of total Akt", "setting": "H1299 cells; IC50 concentration and 10 μM", "value": "completely undetected"},
      {"measurement": "expression of total EGFR", "setting": "H1299 cells; IC50 concentration and 10 μM", "value": "decreased the expression of both phospho and total EGFR"},
      {"measurement": "expression of total Erk1/2", "setting": "H1299 cells; IC50 concentration and 10 μM", "value": "decreased the expression of total Erk1/2 significantly"},
      {"measurement": "expression of total Stat-3", "setting": "H1299 cells; higher concentration (10 μM)", "value": "decreased the expression of total Stat-3 at higher concentrations"},
      {"measurement": "G2/M phase arrest", "setting": "A549; 5 μM", "value": "induced cell cycle arrest"},
      {"measurement": "G2/M phase arrest", "setting": "A549; 10 & 20 μM", "value": "induced G2/M phase arrest in both the cell lines significantly"},
      {"measurement": "G2/M phase arrest", "setting": "[2]; 5 μM", "value": "induced cell cycle arrest"},
      {"measurement": "G2/M phase arrest", "setting": "[2]; 10 & 20 μM", "value": "induced G2/M phase arrest in both the cell lines significantly"}
    ]}
  ]
}
